Measured values: patent US8633245B2, “PAI-1 inhibitor” (Institute of Medicinal Molecular Design, Inc., priority 2008, dated 2014)

Target: T1, recombinant human PAI-1 (Homo sapiens, UniProt P05121)
T1 construct: purchased Molecular Innovations, Inc
Assay: Test Example 2: human PAI-1 inhibitory activity (tPA fluorogenic substrate, pH 7.4 HEPES buffer)
Format: biochemical
Details: human PAI-1
Procedure: 0.1 M HEPES, 0.1 M NaCl. 1 mM EDTA. 0.1% Polyethylene glycol 8,000 (Hampton Research Corporation),
2 mM Dimethyldecylphoshine oxide [Apo-10] (Fluka Corporation)

T1 sequence (P05121 24-402): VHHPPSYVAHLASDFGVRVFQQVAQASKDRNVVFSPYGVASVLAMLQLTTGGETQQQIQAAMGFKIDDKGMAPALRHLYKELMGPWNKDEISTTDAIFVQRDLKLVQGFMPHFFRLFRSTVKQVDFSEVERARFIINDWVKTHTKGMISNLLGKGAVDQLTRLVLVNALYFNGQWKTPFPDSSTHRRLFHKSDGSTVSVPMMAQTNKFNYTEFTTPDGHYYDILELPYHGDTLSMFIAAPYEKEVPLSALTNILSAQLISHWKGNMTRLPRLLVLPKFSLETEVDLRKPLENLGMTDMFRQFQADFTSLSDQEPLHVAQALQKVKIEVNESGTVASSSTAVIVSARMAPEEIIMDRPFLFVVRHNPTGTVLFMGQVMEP

SMILES	Inhibition Rate of PAI-1 Activity (%) (compound concentration 0.1 μM)	Inhibition Rate of PAI-1 Activity (%) (compound concentration 0.3 μM)	Inhibition Rate of PAI-1 Activity (%) (compound concentration 1 μM)	Inhibition Rate of PAI-1 Activity (%) (compound concentration 3 μM)	Inhibition Rate of PAI-1 Activity (%) (compound concentration 10 μM)	Inhibition Rate of PAI-1 Activity (%) (compound concentration 25 μM)
CC(C)c1ccc(Sc2cc(-c3ccc(OC(F)(F)F)cc3)ccc2/C=C/C(=O)O)cc1 [Compound 516]	16%	39%	98%	>99%	–	–
CC(C)(C)c1ccc(Sc2cc(-c3ccc(OC(F)(F)F)cc3)ccc2CCC(=O)O)cc1 [Compound 517]	20%	50%	95%	>99%	–	–
CC(C)c1ccc(-c2ccc(/C=C/C(=O)O)c(Oc3ccc(C(C)(C)C)cc3)c2)cc1 [Compound 518]	14%	54%	>99%	>99%	–	–
CC(C)c1ccc(-c2ccc(CCC(=O)O)c(Oc3ccc(C(C)(C)C)cc3)c2)cc1 [Compound 519]	1%	19%	>99%	>99%	–	–
CC(C)c1ccc(-c2ccc(/C=C/C(=O)O)c(Sc3ccc(C(C)(C)C)cc3)c2)cc1 [Compound 520]	14%	72%	>99%	>99%	–	–
CCC(CC)Oc1ccc(-c2ccc(/C=C/C(=O)O)c(Oc3ccc(C(C)(C)C)cc3)c2)cc1 [Compound 521]	25%	82%	>99%	>99%	–	–
CCC(CC)Oc1ccc(-c2ccc(CCC(=O)O)c(Oc3ccc(C(C)(C)C)cc3)c2)cc1 [Compound 522]	33%	71%	98%	98%	–	–
CCCCOc1ccc(Oc2cc(-c3ccc(OC(F)(F)F)cc3)ccc2OCC(=O)O)cc1 [Compound 523]	11%	15%	78%	>99%	–	–
CC(C)(C)c1ccc(Oc2cc(-c3ccc(OC(F)(F)F)cc3)ccc2CCCC(=O)O)cc1 [Compound 527]	6%	36%	98%	>99%	–	–
O=C(O)/C=C/c1ccc(-c2ccc(OC(F)(F)F)cc2)cc1Sc1ccccc1 [Compound 528]	8%	12%	51%	97%	–	–
CC(C)(C)c1ccc(Sc2cc(-c3ccc(OC(F)(F)F)cc3)ccc2/C=C\C(=O)O)cc1 [Compound 529]	18%	29%	94%	>99%	–	–
CC(C)(C)c1ccc(Sc2cc(-c3ccc(OC(F)(F)F)cc3)ccc2CC(=O)O)cc1 [Compound 530]	17%	21%	93%	>99%	–	–
CC(C)(C)c1ccc(Oc2cc(Nc3ccc(OC(F)(F)F)cc3)ccc2/C=C/C(=O)O)cc1 [Compound 531]	3%	38%	94%	96%	–	–
CC(C)(C)c1ccc(Oc2cc(Nc3ccc(OC(F)(F)F)cc3)ccc2CCC(=O)O)cc1 [Compound 532]	12%	59%	>99%	>99%	–	–
CCCCN(CC(=O)O)c1ccc(-c2ccc(OC(F)(F)F)cc2)cc1Oc1ccc(C(C)(C)C)cc1 [Compound 533]	25%	83%	97%	97%	–	–
CN(CC(=O)O)c1ccc(-c2ccc(OC(F)(F)F)cc2)cc1Oc1ccc(C(C)(C)C)cc1 [Compound 534]	13%	21%	84%	>99%	–	–
CC(C)(C)c1ccc(Oc2cc(Nc3ccc(OC(F)(F)F)cc3)ccc2OCC(=O)O)cc1 [Compound 536]	1%	12%	87%	>99%	–	–
CC(C)(C)c1ccc(Oc2ccc(Oc3ccc(OC(F)(F)F)cc3)cc2OCC(=O)O)cc1 [Compound 537]	0%	26%	92%	97%	–	–
CC(C)(C)c1ccc(Oc2cc(Oc3ccc(OC(F)(F)F)cc3)ccc2OCC(=O)O)cc1 [Compound 538]	0%	12%	87%	98%	–	–
O=C(O)/C=C/c1cc(-c2ccc(OC(F)(F)F)cc2)ccc1OCCCCCOc1ccc(-c2ccc(OC(F)(F)F)cc2)cc1/C=C/C(=O)O [Compound 543]	0%	1%	73%	94%	–	–
O=C(O)CCc1cc(-c2ccc(OC(F)(F)F)cc2)ccc1OCCCCCOc1ccc(-c2ccc(OC(F)(F)F)cc2)cc1CCC(=O)O [Compound 544]	0%	3%	56%	92%	–	–
CC(C)(C)c1ccc(Sc2cc(-c3ccc(OC(F)(F)F)cc3)ccc2C(=O)O)cc1 [Compound 547]	4%	17%	97%	>99%	–	–
CC(C)(C)c1ccc(Sc2cc(-c3ccc(OC(F)(F)F)cc3)ccc2C(=O)C(=O)O)cc1 [Compound 548]	0%	16%	95%	>99%	–	–
CC(C)(C)c1ccc(C(=O)c2cc(-c3ccc(OC(F)(F)F)cc3)ccc2OCC(=O)O)cc1 [Compound 549]	23%	22%	84%	>99%	–	–
CC(C)(C)c1ccc(Cc2cc(-c3ccc(OC(F)(F)F)cc3)ccc2OCC(=O)O)cc1 [Compound 550]	0%	2%	81%	>99%	–	–
CC(C)(C)c1ccc(CCc2cc(-c3ccc(OC(F)(F)F)cc3)ccc2OCC(=O)O)cc1 [Compound 551]	0%	4%	92%	>99%	–	–
O=C(O)CC(=O)N(Cc1ccccc1)c1ccc(-c2ccc(OC(F)(F)F)cc2)cc1F [Compound 602]	–	–	9%	18%	78%	>99%
CC(C)(C)c1ccc(CN(C(=O)CCCC(=O)O)c2ccc(-c3ccc(OC(F)(F)F)cc3)cc2)cc1 [Compound 604]	–	–	0%	20%	36%	46%
CC(C)(C)c1ccc(CN(C(=O)CC(=O)O)c2ccc(-c3ccc(OC(F)(F)F)cc3)cc2)cc1 [Compound 608]	–	–	11%	59%	95%	95%
CC(C)(C)c1ccc(N(CC(=O)O)c2ccccc2Oc2ccc(OC(F)(F)F)cc2)cc1 [Compound 610]	–	–	49%	94%	97%	86%
